Patent US12319701B2, “Antagonists of the muscarinic acetylcholine receptor M4” (priority 2019, dated 2025)

Target: T1, Human M4 (Homo sapiens, UniProt P08173)
T1 construct: expressed in transfected cells; host or cells: CHO-K1 (ATCC), stably co-expressing chimeric G protein Gqi5
T1 sequence (P08173 1-479): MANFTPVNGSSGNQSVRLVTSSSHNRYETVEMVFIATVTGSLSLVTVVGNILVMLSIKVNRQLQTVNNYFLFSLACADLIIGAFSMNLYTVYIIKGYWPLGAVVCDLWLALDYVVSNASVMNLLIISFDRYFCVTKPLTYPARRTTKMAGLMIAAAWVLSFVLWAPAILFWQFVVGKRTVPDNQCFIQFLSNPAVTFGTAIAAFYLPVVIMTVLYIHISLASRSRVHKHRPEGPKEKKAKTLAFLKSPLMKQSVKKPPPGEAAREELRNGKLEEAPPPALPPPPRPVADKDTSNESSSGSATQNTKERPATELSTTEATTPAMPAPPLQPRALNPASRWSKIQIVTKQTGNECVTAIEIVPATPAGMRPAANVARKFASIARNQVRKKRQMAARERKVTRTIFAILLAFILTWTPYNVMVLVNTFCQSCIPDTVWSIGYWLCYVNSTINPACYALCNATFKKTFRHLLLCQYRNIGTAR
Assay: mAChR M4 cell-based functional assay (calcium flux, Fluo-4, M4/Gqi5/CHO-K1 cells)
Conditions: for remaining activity at 30 µM: CHO-K1, read-out: Human M4 Emin (%), % ACh maximum at 30 μM
Protocol: Human or rat M4 cDNA, along with the chimeric G protein Gqi5, were transfected into Chinese hamster ovary (CHO-K1) cells purchased from the American Type Culture Collection using Lipofectamine2000. M4/Gqi5/CHO cells were grown in Ham's F-12 medium containing 10% heat-inactivated fetal bovine serum (FBS), 20 mM HEPES, 500 μg/mL 418 sulfate, and 200 μg/mL Hygromycin B.
For high throughput measurement of agonist-evoked increases in intracellular calcium, CHO-K1 cells stably expressing muscarinic receptors were plated in growth medium lacking 418 and hygromycin at 15,000 cells/20 μL/well in Greiner 384-well black-walled, tissue culture (TC)-treated, clear-bottom plates (VWR). Cells were incubated overnight at 37° C. and 5% CO2. The next day, cells were washed using an ELX 405 (BioTek) with assay buffer; the final volume was then aspirated to 20 μL. Next, 20 μL of a 2.3 μM stock of Fluo-4/acetoxymethyl ester (Invitrogen, Carlsbad, CA), prepared as a 2.3 mM stock in DMSO and mixed in a 1:1 ratio with 10% (w/v) Pluronic F-127 and diluted in assay buffer, was added to the wells and the cell plates were incubated for 50 min at 37° C. and 5% CO2. Dye was removed by washing with the ELX 405 and the final volume was aspirated to 20 μL. Compound master plates were formatted in a 10 point concentration-response curve (CRC) format (1:3 dilutions) in 100% DMSO with a starting concentration of 10 or 1 mM using a BRAVO liquid handler (Agilent). Test compound CRCs were then transferred to daughter plates (240 nL) using the Echo acoustic plate reformatter (Labcyte, Sunnyvale, CA) and then diluted into assay buffer (40 μL) to a 2× stock using a Thermo Fisher Combi (Thermo Fisher Scientific, Waltham, MA).
Calcium flux was measured using the Functional Drug Screening System (FDSS) 6000 or 7000 (Hamamatsu Corporation, Tokyo, Japan) as an increase in the fluorescent static ratio. Compounds were applied to cells (20 μL, 2×) using the automated system of the FDSS at 2 seconds into the protocol and the data were collected at 1 Hz. At 143 s, 10 μL of an EC20 concentration of the muscarinic receptor agonist acetylcholine was added (5×), followed by the addition of 12 μL of an EC80 concentration of acetylcholine at the 268 s time point (5×). Agonist activity was analyzed as a concentration-dependent increase in calcium mobilization upon compound addition. Positive allosteric modulator activity was analyzed as a concentration-dependent increase in the EC20 acetylcholine response. Antagonist activity was analyzed as a concentration-dependent decrease in the ECK) acetylcholine response; for the purposes of the tables herein, an IC50 (inhibitory concentration 50) was calculated as a concentration-dependent decrease of the response elicited by an ECK) concentration of acetylcholine. Concentration-response curves were generated using a four-parameter logistical equation in XLFit curve fitting software (IDBS, Bridgewater, NJ) for Excel (Microsoft, Redmond, WA) or Prism (GraphPad Software, Inc., San Diego, CA) or the Dotmatics software platform (Dotmatics, Bishop's Stortford, UK).
Compounds were synthesized as described above. Activity (IC50 and Emin) was determined in the mAChR M4 cell-based functional assay as described above and the data are shown in Table 2.

Compound	IC50	remaining activity at 30 µM
Clc1nnc(N[C@H]2C[C@@H]3CN(CC4CCOCC4)C[C@@H]3C2)c2ccsc12 [compound 1, 7-chloro-N-((3aR,5s,6aS)-2-((tetrahydro-2H-pyran-4-yl)methyl)octahydrocyclopenta[c]pyrrol-5-yl)thieno[2,3-d]pyridazin-4-amine]	204 nM	3%
Cc1ccc(F)cc1-c1nnc(N[C@H]2C[C@@H]3CN(CC4CCOCC4)C[C@@H]3C2)c2ccsc12 [compound 3, 7-(5-fluoro-2-methylphenyl)-N-((3aR,5s,6aS)-2-((tetrahydro-2H-pyran-4-yl)methyl)octahydrocyclopenta[c]pyrrol-5-yl)thieno[2,3-d]pyridazin-4-amine]	5.11 nM	3%
Cc1ccc(C)c(-c2nnc(N[C@H]3C[C@@H]4CN(CC5CCOCC5)C[C@@H]4C3)c3ccsc23)c1 [compound 4, 7-(2,5-dimethylphenyl)-N-((3aR,5s,6aS)-2-((tetrahydro-2H-pyran-4-yl)methyl)octahydrocyclopenta[c]pyrrol-5-yl)thieno[2,3-d]pyridazin-4-amine]	13.6 nM	3%
COc1ccccc1-c1nnc(N[C@H]2C[C@@H]3CN(CC4CCOCC4)C[C@@H]3C2)c2ccsc12 [compound 6, 7-(2-methoxyphenyl)-N-((3aR,5s,6aS)-2-((tetrahydro-2H-pyran-4-yl)methyl)octahydrocyclopenta[c]pyrrol-5-yl)thieno[2,3-d]pyridazin-4-amine]	8080 nM	20%
Fc1ccccc1-c1nnc(N[C@H]2C[C@@H]3CN(CC4CCOCC4)C[C@@H]3C2)c2ccsc12 [compound 7, 7-(2-fluorophenyl)-N-((3aR,5s,6aS)-2-((tetrahydro-2H-pyran-4-yl)methyl)octahydrocyclopenta[c]pyrrol-5-yl)thieno[2,3-d]pyridazin-4-amine]	7690 nM	15%
c1ccc(-c2nnc(N[C@H]3C[C@@H]4CN(CC5CCOCC5)C[C@@H]4C3)c3ccsc23)cc1 [compound 8, 7-phenyl-N-((3aR,5s,6aS)-2-((tetrahydro-2H-pyran-4-yl)methyl)octahydrocyclopenta[c]pyrrol-5-yl)thieno[2,3-d]pyridazin-4-amine]	4.72 nM	3%
Cn1cc2cc(-c3nnc(N[C@H]4C[C@@H]5CN(CC6CCOCC6)C[C@@H]5C4)c4ccsc34)ccc2n1 [compound 9, 7-(2-methyl-2H-indazol-5-yl)-N-((3aR,5s,6aS)-2-((tetrahydro-2H-pyran-4-yl)methyl)octahydrocyclopenta[c]pyrrol-5-yl)thieno[2,3-d]pyridazin-4-amine]	2.96 nM	3%
Fc1ccc(F)c(-c2nnc(N[C@H]3C[C@@H]4CN(CC5CCOCC5)C[C@@H]4C3)c3sccc23)c1 [compound 10, 4-(2,5-difluorophenyl)-N-((3aR,5s,6aS)-2-((tetrahydro-2H-pyran-4-yl)methyl)octahydrocyclopenta[c]pyrrol-5-yl)thieno[2,3-d]pyridazin-7-amine]	6.25 nM	4%
Clc1nnc(N[C@H]2C[C@@H]3CN(CC4CCOCC4)C[C@@H]3C2)c2sccc12 [compound 12, 4-chloro-N-((3aR,5s,6aS)-2-((tetrahydro-2H-pyran-4-yl)methyl)octahydrocyclopenta[c]pyrrol-5-yl)thieno[2,3-d]pyridazin-7-amine]	284 nM	5%
[2H]C([2H])(C1CCOCC1)N1C[C@H]2C[C@H](Nc3nnc(-c4cc(F)ccc4F)c4sccc34)C[C@H]2C1 [compound 18, 7-(2,5-difluorophenyl)-N-((3aR,5s,6aS)-2-((tetrahydro-2H-pyran-4-yl)methyl-d2)octahydrocyclopenta[c]pyrrol-5-yl)thieno[2,3-d]pyridazin-4-amine]	3 nM	3%

Next, values leading:

IC50	remaining activity at 30 µM	Compound
2.91 nM	3%	Fc1ccc(F)c(-c2nnc(N[C@H]3C[C@@H]4CN(CC5CCOCC5)C[C@@H]4C3)c3ccsc23)c1 [compound 2, 7-(2,5-difluorophenyl)-N-((3aR,5s,6aS)-2-((tetrahydro-2H-pyran-4-yl)methyl)octahydrocyclopenta[c]pyrrol-5-yl)thieno[2,3-d]pyridazin-4-amine]
2.47 nM	4%	Cc1ccccc1-c1nnc(N[C@H]2C[C@@H]3CN(CC4CCOCC4)C[C@@H]3C2)c2ccsc12 [compound 5, N-((3aR,5s,6aS)-2-((tetrahydro-2H-pyran-4-yl)methyl)octahydrocyclopenta[c]pyrrol-5-yl)-7-(o-tolyl)thieno[2,3-d]pyridazin-4-amine]
1.6 nM	3%	Cc1ccc(F)cc1-c1nnc(N[C@H]2C[C@@H]3CN(CC4CCOCC4)C[C@@H]3C2)c2sccc12 [compound 11, 4-(5-fluoro-2-methylphenyl)-N-((3aR,5s,6aS)-2-((tetrahydro-2H-pyran-4-yl)methyl)octahydrocyclopenta[c]pyrrol-5-yl)thieno[2,3-d]pyridazin-7-amine]
0.697 nM	3%	Cn1cc2cc(-c3nnc(N[C@H]4C[C@@H]5CN(CC6CCOCC6)C[C@@H]5C4)c4sccc34)ccc2n1 [compound 13, 4-(2-methyl-2H-indazol-5-yl)-N-((3aR,5s,6aS)-2-((tetrahydro-2H-pyran-4-yl)methyl)octahydrocyclopenta[c]pyrrol-5-yl)thieno[2,3-d]pyridazin-7-amine]
1.46 nM	4%	c1ccc(-c2nnc(N[C@H]3C[C@@H]4CN(CC5CCOCC5)C[C@@H]4C3)c3sccc23)cc1 [compound 14, 4-phenyl-N-((3aR,5s,6aS)-2-((tetrahydro-2H-pyran-4-yl)methyl)octahydrocyclopenta[c]pyrrol-5-yl)thieno[2,3-d]pyridazin-7-amine]
2.31 nM	3%	Fc1ccccc1-c1nnc(N[C@H]2C[C@@H]3CN(CC4CCOCC4)C[C@@H]3C2)c2sccc12 [compound 15, 4-(2-fluorophenyl)-N-((3aR,5s,6aS)-2-((tetrahydro-2H-pyran-4-yl)methyl)octahydrocyclopenta[c]pyrrol-5-yl)thieno[2,3-d]pyridazin-7-amine]
1.71 nM	4%	Fc1cc(F)c(F)c(-c2nnc(N[C@H]3C[C@@H]4CN(CC5CCOCC5)C[C@@H]4C3)c3ccsc23)c1 [compound 16, N-((3aR,5s,6aS)-2-((tetrahydro-2H-pyran-4-yl)methyl)octahydrocyclopenta[c]pyrrol-5-yl)-7-(2,3,5-trifluorophenyl)thieno[2,3-d]pyridazin-4-amine]
0.65 nM	3%	Cc1c(-c2nnc(N[C@H]3C[C@@H]4CN(CC5CCOCC5)C[C@@H]4C3)c3ccsc23)ccc2nn(C)cc12 [compound 17, 7-(2,4-dimethyl-2H-indazol-5-yl)-N-((3aR,5s,6aS)-2-((tetrahydro-2H-pyran-4-yl)methyl)octahydrocyclopenta[c]pyrrol-5-yl)thieno[2,3-d]pyridazin-4-amine]
